Assays:
[1] = target: T1, Beta-2 adrenergic receptor (Homo sapiens, UniProt P07550)
Target sequence in this assay (P07550 whole entry): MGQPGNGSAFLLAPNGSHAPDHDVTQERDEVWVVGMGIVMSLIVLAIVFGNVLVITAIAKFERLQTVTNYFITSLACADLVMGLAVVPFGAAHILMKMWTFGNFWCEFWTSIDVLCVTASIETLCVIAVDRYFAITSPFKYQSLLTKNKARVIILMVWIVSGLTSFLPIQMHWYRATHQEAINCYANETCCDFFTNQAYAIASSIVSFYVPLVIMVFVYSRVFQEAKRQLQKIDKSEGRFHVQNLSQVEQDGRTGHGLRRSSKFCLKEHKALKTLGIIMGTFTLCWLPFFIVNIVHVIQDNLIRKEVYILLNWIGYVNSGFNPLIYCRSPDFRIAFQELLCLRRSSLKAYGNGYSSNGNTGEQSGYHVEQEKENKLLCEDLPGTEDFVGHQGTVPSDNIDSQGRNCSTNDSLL
Description: Inhibition of I-iodocyanopindolol binding to human beta 2 adrenergic receptors

[2] = target: T2, Beta-3 adrenergic receptor (Homo sapiens, UniProt P13945); test: In vitro increase in cAMP levels in Chinese hamster ovary cells expressing the human cloned beta 3 Adrenergic receptor.; format: functional, cell-based
Target sequence in this assay (P13945 whole entry): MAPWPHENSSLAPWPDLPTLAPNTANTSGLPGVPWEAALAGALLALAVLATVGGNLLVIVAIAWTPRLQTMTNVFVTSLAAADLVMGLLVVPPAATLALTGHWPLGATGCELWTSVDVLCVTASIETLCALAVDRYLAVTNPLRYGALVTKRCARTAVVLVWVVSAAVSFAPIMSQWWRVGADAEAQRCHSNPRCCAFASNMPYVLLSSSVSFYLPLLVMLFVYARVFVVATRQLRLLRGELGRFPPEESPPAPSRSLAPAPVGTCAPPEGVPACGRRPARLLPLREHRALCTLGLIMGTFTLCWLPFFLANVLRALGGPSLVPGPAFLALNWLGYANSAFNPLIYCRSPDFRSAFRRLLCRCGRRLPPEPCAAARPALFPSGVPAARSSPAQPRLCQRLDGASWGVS

[3] = target: T1, Beta-2 adrenergic receptor; test: Increased cAMP levels of Chinese hamster ovary (CHO) cells expressing human beta 2 adrenergic receptors; format: functional, cell-based
Target sequence in this assay (P07550 whole entry): as the sequence (P07550 whole entry) above

[4] = target: T3, Beta-1 adrenergic receptor (Homo sapiens, UniProt P08588); test: Inhibition of I-iodocyanopindolol binding to human beta 1 adrenergic receptors
Target sequence in this assay (P08588 whole entry): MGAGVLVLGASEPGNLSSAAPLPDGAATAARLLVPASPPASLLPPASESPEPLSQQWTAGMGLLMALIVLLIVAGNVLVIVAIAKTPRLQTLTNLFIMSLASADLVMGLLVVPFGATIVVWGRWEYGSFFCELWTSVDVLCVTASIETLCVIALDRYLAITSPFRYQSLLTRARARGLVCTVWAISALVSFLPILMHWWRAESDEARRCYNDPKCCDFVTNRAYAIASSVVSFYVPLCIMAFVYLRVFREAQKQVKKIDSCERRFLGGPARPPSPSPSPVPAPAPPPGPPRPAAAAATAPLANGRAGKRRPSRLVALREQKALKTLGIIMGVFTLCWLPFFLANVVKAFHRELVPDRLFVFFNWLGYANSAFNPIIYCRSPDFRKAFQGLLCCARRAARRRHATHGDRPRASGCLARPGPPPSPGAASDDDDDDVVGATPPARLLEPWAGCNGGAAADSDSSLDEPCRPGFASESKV

[5] = target: T3, Beta-1 adrenergic receptor; test: Increased cAMP levels of Chinese hamster ovary (CHO) cells expressing human beta 1 Adrenergic receptor; format: functional, cell-based
Target sequence in this assay (P08588 whole entry): as above

[6] = target: T2, Beta-3 adrenergic receptor; test: Compound was tested for increased thermogenesis using beta-3 human transgenic mice
Target sequence in this assay (P13945 whole entry, looked up): as the sequence (P13945 whole entry) above

[7] = target: T3, Beta-1 adrenergic receptor; test: In vitro activity to increase cAMP levels in Chinese hamster ovary (CHO) cells expressing the cloned human beta 1 Adrenergic receptor; format: cell-based
Target sequence in this assay (P08588 whole entry): as the sequence (P08588 whole entry) above

[8] = target: T1, Beta-2 adrenergic receptor; test: Intrinsic activity to increase cAMP levels in Chinese hamster ovary (CHO) cells expressing the cloned human beta 2 adrenergic receptors; format: cell-based
Target sequence in this assay (P07550 whole entry, looked up): as the sequence (P07550 whole entry) above

[9] = target: T2, Beta-3 adrenergic receptor; test: Intrinsic activity to increase cAMP levels in Chinese hamster ovary (CHO) cells expressing the cloned human beta 3 Adrenergic receptor; format: cell-based
Target sequence in this assay (P13945 whole entry, looked up): as the sequence (P13945 whole entry) above

[10] = target: T3, Beta-1 adrenergic receptor; test: Intrinsic activity to increase cAMP levels in Chinese hamster ovary (CHO) cells expressing the cloned human beta 1 Adrenergic receptor; format: cell-based
Target sequence in this assay (P08588 whole entry, looked up): as the sequence (P08588 whole entry) above

Structure (SMILES)	EC50 [2] [nM]	EC50 [3] [nM]	EC50 [5] [nM]	EC50 [7] [nM]	IA [8]	IA [9]	IA [10]	Ki [1] [nM]	Ki [4] [nM]	Thermogenesis [6] [%]
CC(C)C[C@H](NC(=O)c1ccc(N2CCC(NC[C@H](O)c3ccc(O)c(NS(C)(=O)=O)c3)CC2)cc1)C(=O)O	8	80	60					3400	> 100000	53
CS(=O)(=O)Nc1cc([C@@H](O)CNC2CCN(c3ccc(C(=O)N4CCC[C@H]4C(=O)O)cc3)CC2)ccc1O		20								
CS(=O)(=O)Nc1cc([C@@H](O)CNC2CCN(c3ccc(C(N)=O)cc3)CC2)ccc1O	20	270	1200							
CS(=O)(=O)Nc1cc([C@@H](O)CNC2CCN(c3ccc(CC(=O)O)cc3)CC2)ccc1O	270									
CCCCN(c1ccc(N2CCC(NC[C@H](O)c3ccc(O)c(NS(C)(=O)=O)c3)CC2)cc1)S(=O)(=O)CC(=O)O	4	5000		2000	0.45	1	0.51			
CCCCN(C(=O)CC(=O)O)c1ccc(N2CCC(NC[C@H](O)c3ccc(O)c(NS(C)(=O)=O)c3)CC2)cc1	9	60	40					> 100000	> 100000	35
CS(=O)(=O)Nc1cc([C@@H](O)CNC2CCN(c3ccc(C(=O)N[C@@H](Cc4ccccc4)C(=O)O)cc3)CC2)ccc1O		1500	43700					480	> 100000	
CS(=O)(=O)Nc1cc([C@@H](O)CNC2CCN(c3ccc(COCC(=O)O)cc3)CC2)ccc1O	66	6000	1600							
CC(C)[C@H](NC(=O)c1ccc(N2CCC(NC[C@H](O)c3ccc(O)c(NS(C)(=O)=O)c3)CC2)cc1)C(=O)O	26	> 10000	> 10000					3600	> 100000	
CCCCCCNC(=O)Nc1ccc(S(=O)(=O)Nc2ccc(CCNC[C@H](O)COc3ccc(O)cc3)cc2)cc1 [L-755507]		20		330				160	570	28
CS(=O)(=O)Nc1cc([C@@H](O)CNC2CCN(c3ccc(C(=O)NCC(=O)O)cc3)CC2)ccc1O	60	40	50					11600	> 100000	51
CCCCN(CC(=O)O)C(=O)c1ccc(N2CCC(NC[C@H](O)c3ccc(O)c(NS(C)(=O)=O)c3)CC2)cc1	36	10500	> 1000							

Second part, led by results:

EC50 [2] [nM]	EC50 [3] [nM]	EC50 [5] [nM]	EC50 [7] [nM]	IA [8]	IA [9]	IA [10]	Structure (SMILES)	Ki [1] [nM]	Ki [4] [nM]	Thermogenesis [6] [%]
39	4700	9800					CS(=O)(=O)Nc1cc([C@@H](O)CNC2CCN(c3ccc(CCC(=O)O)cc3)CC2)ccc1O			
130	900	100					CS(=O)(=O)Nc1cc([C@@H](O)CNC2CCN(c3ccc(NC(=O)CC(=O)O)cc3)CC2)ccc1O			
92							CS(=O)(=O)Nc1cc([C@@H](O)CNC2CCN(c3ccc(C(=O)N[C@@H](CCC(=O)O)C(=O)O)cc3)CC2)ccc1O			
220	> 50000		48700				CS(=O)(=O)Nc1cc([C@@H](O)CNC2CCN(c3ccc(C(=O)O)cc3)CC2)ccc1O			
15	3200	4500					CCOC(=O)CNC(=O)c1ccc(N2CCC(NC[C@H](O)c3ccc(O)c(NS(C)(=O)=O)c3)CC2)cc1			
260							CS(=O)(=O)Nc1cc([C@@H](O)CNC2CCN(c3ccc(C(=O)NCCC(=O)O)cc3)CC2)ccc1O			
